Assay results from patent publication US20130274338A1, “PHARMACEUTICAL COMPOSITIONS COMPRISING DGLA, 15-OHEPA, AND/OR 15-HETRE AND METHODS OF REDUCING SEBUM PRODUCTION USING SAME” (priority 2012, published 2013).

Tested on: P. acnes
Experiment: Agar dilution method, growth of P. acnes and MIC, combinations with a fatty acid spike
Assay type: cell-based, Propionibacterium acnes
Parameters: key to Growth Index Plate 1 / Growth Index Plate 2 / Growth Index Plate 3 / Growth Index Avg: +++: confluent growth (comparable to control); ++: less confluent growth; +: marked reduction in growth to multiple tiny, single colonies; −: no growth present
Method: Several compounds including fatty acids such as DGLA, 15-OHEPA, and 15-HETrE were tested to determine their capacity to inhibit the growth of P. acnes. In an exemplary method, an agar dilution method was used to determine the minimum inhibitory concentration (MIC) of each tested compound. Briefly, the agar dilution method involved preparing a series of concentrations of each compound (e.g., nicotinamide, benzoyl peroxide, adapalene, metronidazole, DGLA, 15-OHEPA, and 15-HETrE) in a Reinforced Clostridial Agar (RCA) media that facilitates growth of P. acnes under anaerobic conditions. An inoculum of P. acnes was prepared by incubation of P. acnes for approximately seven days at 35-37° C. to achieve a ≧1.0 OD600 inoculum of P. acnes in RCM broth. A portion of this inoculum was then added to the surface of each plate as a 10 μL spot and incubated at 35-37° C. for 72 hours or more. Growth of P. acnes was then observed and compared to control plates in which no compound has been added, and positive inhibition plates prepared with erythromycin. […] The growth of P. acnes in the presence of nicotinamide, benzoyl peroxide, adapalene, metronidazole, DGLA, 15-OHEPA, and 15-HETrE was determined with varying concentrations of the compound (see, Table 2). Next, the MIC was determined as the concentration at which a marked reduction (+) occurs in the appearance of growth on the test plate (as per Clinical and Laboratory Standards Institute M11-A7).
The compounds tested singly in Example 1 were tested in combination with one another to determine the capacity of the combination to inhibit the growth of P. acnes. In an exemplary method, the MIC was determined for each of the combination as described in Example 1. Briefly, test combinations included DGLA with nicotinamide, benzoyl peroxide, adapalene, or metronidazole; 15-HETrE with nicotinamide, benzoyl peroxide, adapalene, or metronidazole; and 15-OHEPA with nicotinamide, benzoyl peroxide, adapalene, or metronidazole. The tables below show the growth of P. acnes in the presence of 0.4 or 1.0 mg/mL DGLA with varying concentrations of nicotinamide, benzoyl peroxide, adapalene, or metronidazole (Table 3); the growth of P. acnes in the presence of 0.01 or 0.05 mg/mL 15-HETrE with varying concentrations of nicotinamide, benzoyl peroxide, adapalene, or metronidazole (Table 5); and the growth of P. acnes in the presence of 0.5 or 0.1 mg/mL 15-OHEPA with varying concentrations of nicotinamide, benzoyl peroxide, adapalene, or metronidazole (Table 7).

[1] = compound at 0.2 mg/mL + 0.01 mg/mL 15-HETrE
[2] = compound at 0.2 mg/mL + 0.05 mg/mL 15-HETrE
[3] = compound at 0.2 mg/mL + 0.05 mg/mL 15-OHEPA
[4] = compound at 0.2 mg/mL + 0.1 mg/mL 15-OHEPA
[5] = compound at 0.2 mg/mL + 0.4 mg/mL dGLA
[6] = compound at 0.2 mg/mL + 1.0 mg/mL dGLA
[7] = compound at 0.4 mg/mL + 0.01 mg/mL 15-HETrE
[8] = compound at 0.4 mg/mL + 0.05 mg/mL 15-HETrE
[9] = compound at 0.4 mg/mL + 0.05 mg/mL 15-OHEPA
[10] = compound at 0.4 mg/mL + 0.1 mg/mL 15-OHEPA
[11] = compound at 0.4 mg/mL + 0.4 mg/mL dGLA
[12] = compound at 0.4 mg/mL + 1.0 mg/mL dGLA
[13] = compound at 0.6 mg/mL + 0.01 mg/mL 15-HETrE
[14] = compound at 0.6 mg/mL + 0.05 mg/mL 15-HETrE
[15] = compound at 0.6 mg/mL + 0.05 mg/mL 15-OHEPA
[16] = compound at 0.6 mg/mL + 0.1 mg/mL 15-OHEPA
[17] = compound at 0.6 mg/mL + 0.4 mg/mL dGLA
[18] = compound at 0.6 mg/mL + 1.0 mg/mL dGLA
[19] = compound at 0.7 mg/mL + 0.01 mg/mL 15-HETrE
[20] = compound at 0.7 mg/mL + 0.05 mg/mL 15-HETrE
[21] = compound at 0.7 mg/mL + 0.05 mg/mL 15-OHEPA
[22] = compound at 0.7 mg/mL + 0.1 mg/mL 15-OHEPA
[23] = compound at 0.8 mg/mL + 0.01 mg/mL 15-HETrE
[24] = compound at 0.8 mg/mL + 0.05 mg/mL 15-HETrE
[25] = compound at 0.8 mg/mL + 0.05 mg/mL 15-OHEPA
[26] = compound at 0.8 mg/mL + 0.1 mg/mL 15-OHEPA
[27] = compound at 0.8 mg/mL + 0.4 mg/mL dGLA
[28] = compound at 0.8 mg/mL + 1.0 mg/mL dGLA
[29] = compound at 1.0 mg/mL + 0.4 mg/mL dGLA
[30] = compound at 1.0 mg/mL + 1.0 mg/mL dGLA

SMILES: COc1ccc(-c2ccc3cc(C(=O)O)ccc3c2)cc1C12CC3CC(CC(C3)C1)C2 [Adapalene, 6-[3-(1-adamantyl)-4-methoxyphenyl]-2-naphthoic acid]
- Growth Index Avg [1]: +++
- Growth Index Plate 1 [1]: +++
- Growth Index Plate 2 [1]: +++
- Growth Index Plate 3 [1]: +++
- Growth Index Avg [2]: −
- Growth Index Plate 1 [2]: −
- Growth Index Plate 2 [2]: −
- Growth Index Plate 3 [2]: −
- Growth Index Avg [3]: +++
- Growth Index Plate 1 [3]: +++
- Growth Index Plate 2 [3]: +++
- Growth Index Plate 3 [3]: +++
- Growth Index Avg [4]: −
- Growth Index Plate 1 [4]: −
- Growth Index Plate 2 [4]: −
- Growth Index Plate 3 [4]: −
- Growth Index Avg [5]: +++
- Growth Index Plate 1 [5]: +++
- Growth Index Plate 2 [5]: +++
- Growth Index Plate 3 [5]: +++
- Growth Index Avg [6]: +++
- Growth Index Plate 1 [6]: +++
- Growth Index Plate 2 [6]: +++
- Growth Index Plate 3 [6]: +++
- Growth Index Avg [7]: +++
- Growth Index Plate 1 [7]: +++
- Growth Index Plate 2 [7]: +++
- Growth Index Plate 3 [7]: +++
- Growth Index Avg [8]: −
- Growth Index Plate 1 [8]: −
- Growth Index Plate 2 [8]: −
- Growth Index Plate 3 [8]: −
- Growth Index Avg [9]: +++
- Growth Index Plate 1 [9]: +++
- Growth Index Plate 2 [9]: +++
- Growth Index Plate 3 [9]: +++
- Growth Index Avg [10]: −
- Growth Index Plate 1 [10]: −
- Growth Index Plate 2 [10]: −
- Growth Index Plate 3 [10]: −
- Growth Index Avg [11]: +++
- Growth Index Plate 1 [11]: +++
- Growth Index Plate 2 [11]: +++
- Growth Index Plate 3 [11]: +++
- Growth Index Avg [12]: +++
- Growth Index Plate 1 [12]: +++
- Growth Index Plate 2 [12]: +++
- Growth Index Plate 3 [12]: +++
- Growth Index Avg [13]: ++
- Growth Index Plate 1 [13]: ++
- Growth Index Plate 2 [13]: ++
- Growth Index Plate 3 [13]: ++
- Growth Index Avg [14]: −
- Growth Index Plate 1 [14]: −
- Growth Index Plate 2 [14]: −
- Growth Index Plate 3 [14]: −
- Growth Index Avg [15]: +++
- Growth Index Plate 1 [15]: ++
- Growth Index Plate 2 [15]: +++
- Growth Index Plate 3 [15]: +++
- Growth Index Avg [16]: −
- Growth Index Plate 1 [16]: −
- Growth Index Plate 2 [16]: −
- Growth Index Plate 3 [16]: −
- Growth Index Avg [17]: +++
- Growth Index Plate 1 [17]: +++
- Growth Index Plate 2 [17]: +++
- Growth Index Plate 3 [17]: +++
- Growth Index Avg [18]: +++
- Growth Index Plate 1 [18]: +++
- Growth Index Plate 2 [18]: +++
- Growth Index Plate 3 [18]: +++
- Growth Index Avg [19]: +
- Growth Index Plate 1 [19]: +
- Growth Index Plate 2 [19]: +
- Growth Index Plate 3 [19]: +
- Growth Index Avg [20]: −
- Growth Index Plate 1 [20]: −
- Growth Index Plate 2 [20]: −
- Growth Index Plate 3 [20]: −
- Growth Index Avg [21]: ++
- Growth Index Plate 1 [21]: ++
- Growth Index Plate 2 [21]: ++
- Growth Index Plate 3 [21]: ++
- Growth Index Avg [22]: −
- Growth Index Plate 1 [22]: −
- Growth Index Plate 2 [22]: −
- Growth Index Plate 3 [22]: −
- Growth Index Avg [23]: −
- Growth Index Plate 1 [23]: +
- Growth Index Plate 2 [23]: −
- Growth Index Plate 3 [23]: −
- Growth Index Avg [24]: −
- Growth Index Plate 1 [24]: −
- Growth Index Plate 2 [24]: −
- Growth Index Plate 3 [24]: −
- Growth Index Avg [25]: ++
- Growth Index Plate 1 [25]: ++
- Growth Index Plate 2 [25]: ++
- Growth Index Plate 3 [25]: +
- Growth Index Avg [26]: −
- Growth Index Plate 1 [26]: −
- Growth Index Plate 2 [26]: −
- Growth Index Plate 3 [26]: −
- Growth Index Avg [27]: +++
- Growth Index Plate 1 [27]: +++
- Growth Index Plate 2 [27]: +++
- Growth Index Plate 3 [27]: +++
- Growth Index Avg [28]: +++
- Growth Index Plate 1 [28]: +++
- Growth Index Plate 2 [28]: +++
- Growth Index Plate 3 [28]: +++
- Growth Index Avg [29]: +++
- Growth Index Plate 1 [29]: +++
- Growth Index Plate 2 [29]: +++
- Growth Index Plate 3 [29]: +++
- Growth Index Avg [30]: +++
- Growth Index Plate 1 [30]: +++
- Growth Index Plate 2 [30]: +++
- Growth Index Plate 3 [30]: +++
- growth of P. Acnes in combination with 15-OHEPA, compared with 15 OHEPA used alone (in combination with 15-OHEPA): did not reduce the growth
- growth of P. Acnes in combination with DGLA, compared with DGLA used alone (in combination with DGLA): did not reduce the growth
